Measurements from patent US20050013852A1, “Dermal for amino laevulinic acid” (priority 2000, published 2005).

Key:
[1] = sedimentation (sinking speed) of ALA particles in NE solution; type: physicochemical; conditions: sieve fraction 60-90 μm
[2] = fresh ALA solution, approximate physiological value of 8, after two weeks; cited from earlier work

## NCC(=O)CCC(=O)O [ALA, 5-aminolaevulinic acid]
[1]; NE 12 % g/g in solution
  Sinking speed of the ALA particles in solution: 396 μm/10 s
[1]; NE 18 % g/g in solution
  Sinking speed of the ALA particles in solution: 119 μm/10 s
[1]; NE 24 % g/g in solution
  Sinking speed of the ALA particles in solution: 3 μm/10 s
[2]
  undecomposed active substance: approx. 10%
